Counter-ions that a name gives are not always drawn.
These compounds were tested against Human PDE4D (Homo sapiens (Human), UniProt Q08499) (assay: PDE4D Scintillation Proximity Assay (SPA), inhibition of enzyme activity). Details: human recombinant enzyme, 1 μM cAMP substrate, 30 min at 25° C., geometric mean of 2-9 determinations unless otherwise indicated, read-out: Human PDE4D FL.
Assay type: biochemical

Chain of Human PDE4D (Q08499 186-808): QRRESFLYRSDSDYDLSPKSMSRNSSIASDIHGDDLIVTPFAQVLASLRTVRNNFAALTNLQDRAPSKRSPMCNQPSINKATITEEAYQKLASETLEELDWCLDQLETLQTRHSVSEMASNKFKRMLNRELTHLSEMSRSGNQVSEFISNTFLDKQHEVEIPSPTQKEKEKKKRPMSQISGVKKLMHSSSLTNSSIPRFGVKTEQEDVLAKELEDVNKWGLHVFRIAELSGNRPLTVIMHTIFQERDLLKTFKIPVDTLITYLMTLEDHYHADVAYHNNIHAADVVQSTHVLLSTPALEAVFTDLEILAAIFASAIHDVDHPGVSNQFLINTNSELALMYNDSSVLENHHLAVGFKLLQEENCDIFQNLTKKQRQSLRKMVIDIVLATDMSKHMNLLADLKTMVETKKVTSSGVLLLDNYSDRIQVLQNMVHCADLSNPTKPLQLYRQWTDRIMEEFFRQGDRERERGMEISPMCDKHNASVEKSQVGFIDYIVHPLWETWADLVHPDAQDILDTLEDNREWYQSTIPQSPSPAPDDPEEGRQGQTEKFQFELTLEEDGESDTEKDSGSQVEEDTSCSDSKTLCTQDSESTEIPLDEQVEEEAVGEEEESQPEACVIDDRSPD

First: Cc1ccc(-c2c(C(=O)N[C@@H]3C[C@@H]3F)nc3cccnn23)c(F)c1 [Example 72, N-[(1R,2S)-2-fluorocyclopropyl]-3-(2-fluoro-4-methylphenyl)imidazo[1,2-b]pyridazine-2-carboxamide]
Second: O=C(N[C@@H]1C[C@@H]1F)c1nc2cccnn2c1-c1cncc(Cl)c1 [Example 69, 3-(5-chloropyridin-3-yl)-N-[(1R,2S)-2-fluorocyclopropyl]imidazo[1,2-b]pyridazine-2-carboxamide]
The IC50 of the first is 2-fold higher: 6590 nM for the first, 3330 nM for the second.

Compared with `O=C(c1nc2cccnn2c1-c1ccc(Cl)cc1Cl)N1CCC1` [Example 65, azetidin-1-yl[3-(2,4-dichlorophenyl)imidazo[1,2-b]pyridazin-2-yl]methanone], `Cc1ccc(Cl)cc1-c1c(C(=O)N2CCC2)nc2cccnn12` [Example 64, azetidin-1-yl[3-(5-chloro-2-methylphenyl)imidazo[1,2-b]pyridazin-2-yl]methanone] is 4.4-fold lower in IC50: 3720 nM for the first, 844 nM for the second. The second is the more potent here.

Going from `Cc1ccc(C#N)cc1-c1c(C(=O)NC2CC2)nc2cccnn12` [Example 80, 3-(5-cyano-2-methylphenyl)-N-cyclopropylimidazo[1,2-b]pyridazine-2-carboxamide] to `O=C(NC1CC1)c1nc2cccnn2c1-c1ccc(Cl)c(Cl)c1` [Example 11, N-cyclopropyl-3-(3,4-dichlorophenyl)imidazo[1,2-b]pyridazine-2-carboxamide], the IC50 falls from greater than 25400 nM to 334 nM. The second is the more potent here.

Going from `CC(C)NC(=O)c1nc2cccnn2c1-c1cc(F)c(Cl)cc1F` [Example 100, 3-(4-chloro-2,5-difluorophenyl)-N-(propan-2-yl)imidazo[1,2-b]pyridazine-2-carboxamide] to `CCNC(=O)c1nc2cccnn2c1-c1ccc(Cl)cc1C` [Example 95, 3-(4-chloro-2-methylphenyl)-N-ethylimidazo[1,2-b]pyridazine-2-carboxamide], the IC50 rises from 766 nM to 14800 nM (19-fold).

Compared with `O=C(NC1CC1)c1nc2cccnn2c1-c1cnc2ccoc2c1` [Example 38, N-cyclopropyl-3-(furo[3,2-b]pyridin-6-yl)imidazo[1,2-b]pyridazine-2-carboxamide], `O=C(NC1CC1)c1nc2cccnn2c1-c1cnc2ccnn2c1` [Example 78, N-cyclopropyl-3-(pyrazolo[1,5-a]pyrimidin-6-yl)imidazo[1,2-b]pyridazine-2-carboxamide] is 1.7-fold lower in IC50: 11200 nM for the first, 6490 nM for the second.

First: O=C(c1nc2cccnn2c1-c1cnc2ccnn2c1)N1CCC1 [Example 74, azetidin-1-yl[3-(pyrazolo[1,5-a]pyrimidin-6-yl)imidazo[1,2-b]pyridazin-2-yl]methanone]
Second: O=C(c1nc2cccnn2c1-c1ccc2ncnn2c1)N1CCC1 [Example 16, azetidin-1-yl[3-([1,2,4]triazolo[1,5-a]pyridin-6-yl)imidazo[1,2-b]pyridazin-2-yl]methanone]
The IC50 of the first is lower: 10500 nM for the first, greater than 27500 nM for the second. The first is the more potent here.

Going from `O=C(c1nc2cccnn2c1-c1ccnc(C(F)(F)F)c1)N1CCC1` [Example 43, azetidin-1-yl{3-[2-(trifluoromethyl)pyridin-4-yl]imidazo[1,2-b]pyridazin-2-yl}methanone] to `Cc1cc(-c2c(C(=O)N3CCC3)nc3cccnn23)ccc1Cl` [Example 51, azetidin-1-yl[3-(4-chloro-3-methylphenyl)imidazo[1,2-b]pyridazin-2-yl]methanone], the IC50 falls from greater than 16900 nM to 2810 nM.

For `O=C(NC1CC1(F)F)c1nc2cccnn2c1-c1ccc(Cl)c(F)c1` (centres unmarked) [Example 44, 3-(4-chloro-3-fluorophenyl)-N-(2,2-difluorocyclopropyl)imidazo[1,2-b]pyridazine-2-carboxamide], the IC50 was 320 nM.

Same assay, conditions: read-out: Human PDE4D FL

First: CC(=O)c1ccc(F)c(-c2c(C(=O)N3CCC3)nc3cccnn23)c1 [Example 63, 1-[3-[2-(azetidin-1-ylcarbonyl)imidazo[1,2-b]pyridazin-3-yl]-4-fluorophenyl]ethanone, formate salt]
Second: Cc1ccc(-c2c(C(=O)N3CCC3)nc3cccnn23)c(C)c1Cl [Example 66, azetidin-1-yl[3-(3-chloro-2,4-dimethylphenyl)imidazo[1,2-b]pyridazin-2-yl]methanone, formate salt]
The IC50 of the first is 8.6-fold lower: 394 nM for the first, 3390 nM for the second. The first is the more potent here.

Compared with `O=C(c1nc2cccnn2c1-c1ccc2nccnc2c1)N1CCC1` [Example 62, azetidin-1-yl[3-(quinoxalin-6-yl)imidazo[1,2-b]pyridazin-2-yl]methanone, formate salt], `O=C(c1nc2cccnn2c1-c1ccc2c(c1)OCCO2)N1CCC1` [Example 67, azetidin-1-yl[3-(2,3-dihydro-1,4-benzodioxin-6-yl)imidazo[1,2-b]pyridazin-2-yl]methanone, formate salt] is 4.9-fold lower in IC50: 11000 nM for the first, 2260 nM for the second.

`Cn1ncc(NC(=O)c2nc3cccnn3c2-c2ccc(Cl)cc2)n1` [Example 59, 3-(4-chlorophenyl)-N-(2-methyl-2H-1,2,3-triazol-4-yl)imidazo[1,2-b]pyridazine-2-carboxamide, trifluoroacetate salt] and `Cc1cc(NC(=O)c2nc3cccnn3c2-c2ccc(Cl)cc2)no1` [Example 58, 3-(4-chlorophenyl)-N-(5-methyl-1,2-oxazol-3-yl)imidazo[1,2-b]pyridazine-2-carboxamide, trifluoroacetate salt] are within 1.5-fold of each other in IC50: 749 nM for the first, 831 nM for the second.

Compound `O=C(NCCc1ccccc1O)c1nc2cccnn2c1-c1ccc(Cl)cc1` [Example 57, 3-(4-chlorophenyl)-N-[2-(2-hydroxyphenyl)ethyl]imidazo[1,2-b]pyridazine-2-carboxamide, formate salt] has an IC50 greater than 21800 nM.

The compounds below were run against Human PDE4A (Homo sapiens (Human), UniProt P27815) (assay: PDE4A Scintillation Proximity Assay (SPA), inhibition of enzyme activity). Details: human recombinant enzyme, 1 μM cAMP substrate, 30 min at 25° C., geometric mean of 2-9 determinations unless otherwise indicated, read-out: Human PDE4A FL.
Assay type: biochemical
Protocol: The PDE4A3, PDE4B1, PDE4C1 and PDE4D3 assays use the Scintillation Proximity Assay (SPA) technology to measure the inhibition of human recombinant PDE4A1, PDE4B3, PDE4C1, and PDE4D3 enzyme activity by compounds in vitro. The PDE4A1, PDE4B3, PDE4C1, and PDE4D3 assays are run in parallel using identical parameters, except for the concentration of enzyme (80 pM PDE4A3, 40 pM PDE4B3, 40 pM PDE4C1 and 10 pM PDE4D). […] Reactions are incubated for 30 min at 25° C. The addition of 20 uL of 8 mg/ml yitrium silicate SPA beads (Perkin Elmer) stops the reaction. The plates are sealed (TopSeal, Perkin Elmer) and the beads are allowed to settle for 8 hrs, after which they are read on the Trilux Microbeta overnight.

Chain of Human PDE4A (P27815 other isoform, or with tags, fused parts or gaps): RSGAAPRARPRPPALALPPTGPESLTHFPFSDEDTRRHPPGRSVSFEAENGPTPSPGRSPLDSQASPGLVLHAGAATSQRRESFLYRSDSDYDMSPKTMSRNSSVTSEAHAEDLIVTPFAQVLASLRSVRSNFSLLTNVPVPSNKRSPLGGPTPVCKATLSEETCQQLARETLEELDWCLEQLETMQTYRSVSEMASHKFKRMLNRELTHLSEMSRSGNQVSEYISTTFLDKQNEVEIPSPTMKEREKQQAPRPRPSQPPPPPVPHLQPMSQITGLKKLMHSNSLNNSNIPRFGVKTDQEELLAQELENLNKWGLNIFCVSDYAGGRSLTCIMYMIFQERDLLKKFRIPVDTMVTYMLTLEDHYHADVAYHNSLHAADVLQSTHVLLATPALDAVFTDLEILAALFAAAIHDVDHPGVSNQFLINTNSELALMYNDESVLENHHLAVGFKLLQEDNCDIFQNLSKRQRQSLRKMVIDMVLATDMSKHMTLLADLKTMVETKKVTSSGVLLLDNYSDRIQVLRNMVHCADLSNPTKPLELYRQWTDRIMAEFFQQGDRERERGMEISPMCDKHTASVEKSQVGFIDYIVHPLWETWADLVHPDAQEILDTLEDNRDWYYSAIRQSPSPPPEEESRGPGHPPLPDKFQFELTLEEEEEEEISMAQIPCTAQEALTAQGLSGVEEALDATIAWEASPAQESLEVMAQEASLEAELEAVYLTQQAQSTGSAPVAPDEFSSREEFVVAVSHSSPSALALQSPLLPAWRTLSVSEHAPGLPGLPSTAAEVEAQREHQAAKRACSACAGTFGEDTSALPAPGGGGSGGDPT

In order of falling IC50:
1. O=C(c1nc2cccnn2c1-c1cncc(Cl)c1)N1CCC1 [Example 15, azetidin-1-yl[3-(5-chloropyridin-3-yl)imidazo[1,2-b]pyridazin-2-yl]methanone]  264 nM
2. COc1ccc(-c2c(C(=O)N3CCC3)nc3cccnn23)c(F)c1 [Example 73, azetidin-1-yl[3-(2-fluoro-4-methoxyphenyl)imidazo[1,2-b]pyridazin-2-yl]methanone]  165 nM
3. Cc1cc(-c2c(C(=O)NC3CC3)nc3cccnn23)c(F)cc1C#N [Example 17, 3-(4-cyano-2-fluoro-5-methylphenyl)-N-cyclopropylimidazo[1,2-b]pyridazine-2-carboxamide]  89.9 nM
4. O=C(NC1CC1)c1nc2cccnn2c1-c1ccc2ncnn2c1 [Example 6, N-Cyclopropyl-3-([1,2,4]triazolo[1,5-a]pyridin-6-yl)imidazo[1,2-b]pyridazine-2-carboxamide]  64.4 nM
5. O=C(Nc1ccn[nH]1)c1nc2cccnn2c1-c1ccc(Cl)cc1 [Example 103, 3-(4-chlorophenyl)-N-(1H-pyrazol-5-yl)imidazo[1,2-b]pyridazine-2-carboxamide]  62.7 nM
6. CN(C(=O)c1nc2cccnn2c1-c1ccc(Cl)c(F)c1)C1CC1 [Example 21, 3-(4-chloro-3-fluorophenyl)-N-cyclopropyl-N-methylimidazo[1,2-b]pyridazine-2-carboxamide]  53.7 nM
7. CCCNC(=O)c1nc2cccnn2c1-c1cc(F)cc(Cl)c1 [Example 34, 3-(3-chloro-5-fluorophenyl)-N-propylimidazo[1,2-b]pyridazine-2-carboxamide]  29.5 nM
8. Cc1cc(Cl)ccc1-c1c(C(=O)N2CCC2)nc2cccnn12 [Example 56, azetidin-1-yl[3-(4-chloro-2-methylphenyl)imidazo[1,2-b]pyridazin-2-yl]methanone]  22.7 nM
9. Cc1cc(C#N)c(F)cc1-c1c(C(=O)NC(C)C)nc2cccnn12 [Example 99, 3-(4-cyano-5-fluoro-2-methylphenyl)-N-(propan-2-yl)imidazo[1,2-b]pyridazine-2-carboxamide]  19.8 nM
10. Cc1cc(C#N)c(F)cc1-c1c(C(=O)NC2CC2)nc2cccnn12 [Example 19, 3-(4-cyano-5-fluoro-2-methylphenyl)-N-cyclopropylimidazo[1,2-b]pyridazine-2-carboxamide]  16.9 nM
11. O=C(c1nc2cccnn2c1-c1cccc(Cl)c1)N1CCC1 [Example 84, azetidin-1-yl[3-(3-chlorophenyl)imidazo[1,2-b]pyridazin-2-yl]methanone]  16.7 nM
12. O=C(c1nc2cccnn2c1-c1cc(F)c(Cl)cc1F)N1CCC1 [Example 91, azetidin-1-yl[3-(4-chloro-2,5-difluorophenyl)imidazo[1,2-b]pyridazin-2-yl]methanone]  12.6 nM
13. O=C(Nc1cn[nH]c1)c1nc2cccnn2c1-c1ccc(Cl)c(F)c1 [Example 82, 3-(4-chloro-3-fluorophenyl)-N-(1H-pyrazol-4-yl)imidazo[1,2-b]pyridazine-2-carboxamide]  12 nM
14. CCNC(=O)c1nc2cccnn2c1-c1ccc(Cl)c(F)c1 [Example 81, 3-(4-chloro-3-fluorophenyl)-N-ethylimidazo[1,2-b]pyridazine-2-carboxamide]  7.86 nM
15. O=C(c1nc2cccnn2c1-c1ccc2c(c1)OC(F)(F)O2)N1CCC1 [Example 86, azetidin-1-yl[3-(2,2-difluoro-1,3-benzodioxol-5-yl)imidazo[1,2-b]pyridazin-2-yl]methanone]  5.83 nM
16. Cc1cc(Cl)c(F)cc1-c1c(C(=O)NC(C)C)nc2cccnn12 [Example 97, 3-(4-chloro-5-fluoro-2-methylphenyl)-N-(propan-2-yl)imidazo[1,2-b]pyridazine-2-carboxamide]  5.48 nM
17. Cc1ccc(-c2c(C(=O)N3CCC3)nc3cccnn23)cc1Cl [Example 49, azetidin-1-yl[3-(3-chloro-4-methylphenyl)imidazo[1,2-b]pyridazin-2-yl]methanone]  4.16 nM
18. Cc1ccc(-c2c(C(=O)NC3CC3)nc3cccnn23)cc1F [Example 41, N-cyclopropyl-3-(3-fluoro-4-methylphenyl)imidazo[1,2-b]pyridazine-2-carboxamide]  3.13 nM
19. O=C(N[C@@H]1C[C@@H]1F)c1nc2cccnn2c1-c1ccc(Cl)c(F)c1 [Example 45, 3-(4-chloro-3-fluorophenyl)-N-[(1R,2S)-2-fluorocyclopropyl]imidazo[1,2-b]pyridazine-2-carboxamide]  2.91 nM
